Entries after “also recorded” stand apart in the source; their conditions may differ. Read-outs that look alike come from different tables or passages of the source.
Experiments:
wildtype mice = experiment: hypothermia and hypomotility (temperature and 5 minute motility in openfield activity chamber) in wildtype mice; format: in vivo, mouse
Experimental: Many CB1 agonists are known to induce psychotrophic associated “tetrad effects” due to central binding to CB receptors [Howlett, A. C. et al, International Union of Pharmacology. XXVII, Pharmacol. Rev. 2002, 54, 161-202]. Studies were undertaken to investigate whether the compounds of the present invention also bound to central CB1 receptors. This is assessed by measuring the ability of the compounds to induce sedation, ptosis, hypomotility, catalepsy and hypothermia in normal mice [Brooks, J. W. et al, Eur. J. Pharmacol. 2002, 439, 83-92], following i.v., i.p. and oral administration.
A CNS excluded compound provides a tool for examining if a component of a cannabinoid anti-spastic effect is mediated via peripheral CB receptors. […] As stated above there is no established role for peripheral cannabinoid receptors in the control of spasticity, however, spasticity is likely to be a product of nerve damage in the spinal cord, at least in EAE, [Baker, D. et al, FASEB J. 2001, 15, 300-302; Baker, D. et al, J. Neuroimmunol. 1990, 28, 261-270] and aberrant signals to and from the musculature are likely, at least in part to contribute to the muscle spasms occurring in spasticity.

CREAE mice = experiment: assessment of spasticity in CREAE mice (resistance to full flexion of hindlimbs against a strain gauge); format: in vivo, mouse
Experimental: Spasticity developed following the development of chronic EAE induced by injection of mouse spinal cord homogenate in Freund's complete adjuvant on day 0 & 7. This occurred 60-80 days post-induction in wildtype ABH.Cnr1+/+ mice and 30-40 days post-induction in CB1 receptor gene (Cnr1)-deficient ABH.Cnr1−/− mice). Spasticity was assessed by resistance to full flexion of hindlimbs against a strain gauge [Baker et al 2000], before and after treatment with either the full CB1/CB2 agonist CP55,940 or full CB1/CB2/“CB3” agonist injected intraperitoneally or compound (16) injected intravenously in vehicle (alcohol:cremophor:PBS (1:1:18)). […] Statistical analysis was performed on raw data and were analysed pairwise from baseline levels (*** P<0.001).
Further studies were undertaken using cannabinoid knockout mice, including CB1, CB2, VR-1, FAAH and conditional CB1 knockout mice. […] Spasticity is assessed (n=6-7/group) by resistance to hindlimb flexion using a strain gauge [Baker, D. et al, Nature 2000, 404, 84-87]. Animals serve as their own controls and will be analysed in a pairwise fashion. […] Low doses of CB1 agonists and CNS active CP55,940, as control, are locally (subcutaneous, intra-muscularly) administered into spastic ABH mice and the lack of activity in a contralateral limb analysed [Fox, A. et al, Pain 2001, 92, 91-100]. […]

CB1 receptor = target: T1, CB1 receptor (Mus musculus, UniProt P47746); experiment: vas deferens inhibition of contractions (cannabinoid receptor modulating activity)
T1 construct: from tissue; host or cells: mouse vas deferens (isolated tissue preparation)
T1 sequence (P47746 whole entry): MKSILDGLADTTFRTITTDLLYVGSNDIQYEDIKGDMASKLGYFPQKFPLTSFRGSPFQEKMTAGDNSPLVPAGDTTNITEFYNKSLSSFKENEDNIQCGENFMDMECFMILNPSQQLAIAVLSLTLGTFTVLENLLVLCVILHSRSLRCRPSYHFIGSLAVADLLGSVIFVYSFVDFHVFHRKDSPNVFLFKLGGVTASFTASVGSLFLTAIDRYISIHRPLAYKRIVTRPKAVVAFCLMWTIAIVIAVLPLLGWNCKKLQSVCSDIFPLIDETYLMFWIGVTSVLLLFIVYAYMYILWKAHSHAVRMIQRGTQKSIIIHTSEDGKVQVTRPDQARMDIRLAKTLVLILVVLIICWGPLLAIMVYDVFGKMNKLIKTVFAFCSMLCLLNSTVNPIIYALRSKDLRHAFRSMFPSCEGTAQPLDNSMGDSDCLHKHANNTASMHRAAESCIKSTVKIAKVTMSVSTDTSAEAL

| SMILES | CNS effects: hypothermia and hypomotility (wildtype mice; wildtype mice, 20 mg/kg i.v.) | CNS effects: hypothermia and hypomotility (wildtype mice; wildtype/normal mice, 1 mg/kg, 20 min after injection, 1 mg/kg) | anti-spastic activity (CREAE mice; administered in PBS alone (not shown)) | anti-spastic activity (CREAE mice; wildtype ABH mice with CREAE, injected intravenously in alcohol:cremophor:PBS (1:1:18), 10 minutes after administration) | effect of CB1 antagonist SR141716A on the compound's effect in vas deferens (CB1 receptor; in presence of SR141716A) | IC50 (CB1 receptor; mouse vas deferens preparation, FIG. 1, read-out: IC50, vas deferens preparation) | IC50 (CB1 receptor; rat vas deferens, FIG. 1 legend, read-out: IC50, inhibition of contractions) | CNS effects: temperature and motility (wildtype mice; wildtype mice, 20 min after injection, dose not given) |
| --- | --- | --- | --- | --- | --- | --- | --- | --- |
| CC(CO)NC(=O)c1cccc(/C=C\CCCC(=O)N(C)C)c1 (racemic) [Compound 16, 3-(5-Dimethylcarbamoyl-pent-1-enyl)-N-(2-hydroxy-1-methyl-ethyl)benzamide] | inactive | inactive; also recorded: no hypothermia or hypomotility was observed | active | significant anti-spastic activity; also recorded: marked effect on spasticity; also recorded: selective inhibition of spasticity without producing CNS effects | neutralised by the CB1-antagonist SR141716A; also recorded: inhibited by the selective CB1 antagonist SR141716A | ~1000 pM | ~100 pM | – |
| Cc1c(C(=O)c2cccc3ccccc23)c2cccc3c2n1[C@H](CN1CCOCC1)CO3 [R(+)WIN55,212, reference compound] | – | – | – | – | – | – | – | induced typical cannabinmimetic effects |

From patent US8293796B2, “Modulator” (University College London, priority 2004, dated 2012)
